Consider one compound from US20130052172A1, “METHODS FOR DIAGNOSING AND TREATING CARDIAC DEFECTS” (priority 2011, published 2013).

“Also recorded” adds a separate entry of the source.

Data set [1] has as its system isolated hearts. The data set can be described thus: In vitro global ischemia/reperfusion of isolated perfused hearts, infarct size and recovery of LVDP. Further details: species or system rat. Here is the method:
(§1) For in vitro ischemia/reperfusion studies, hearts were perfused retrogradely, as described previously in Baker, J. et al. (Am. J. Physiol. Heart Circ. Physiol., 2000), the entirety of which is incorporated herein by reference. Briefly, hearts were perfused with modified Krebs-Henseleit buffer (120 mM NaCl, 25 mM NaHCO3, 4.7 mM KCl, 1.2 mM KH2PO4, 1.20 mM MgSO4, 11 mM glucose, and 1.8 mM CaCl2) bubbled with 95% O2-5% CO2 for a 40-minute stabilization period and subjected to 25 minutes of global no-flow ischemia, followed by 180 minutes of reperfusion. Before use, all perfusion fluids were filtered through cellulose acetate membranes with a pore size of 5.0 μm to remove particulate matter. Hearts were kept in temperature-controlled chambers to maintain myocardial temperature at 37° C. A balloon connected to a pressure transducer was inserted into the left ventricle to monitor cardiac function. For some experiments, hearts were stabilized for 25 minutes and then perfused with vancomycin or a mixture of antibiotics for 15 minutes before ischemia/reperfusion. During the initial 40 minute reperfusion period, recovery of mechanical function was measured as left ventricular developed pressure (LVDP) under steady-state conditions and expressed as a percentage of preischemic LVDP. At the end of the 3 hour reperfusion period, hearts were processed and stained with 2,3,5-triphenyltetrazolium chloride dye for IS determination.

The test system of data set [2] is rats. The data set can be described thus: Myocardial ischemia/reperfusion by the protocol of example 3 (model not given). Type of data set: in vivo, rat. To be noted: antibiotics in drinking water.
Text: In the following example, methods for assaying myocardial infarction in vitro and in vivo in rats as determined by ischemia/reperfusion studies are described.
An anesthetized rat model was used for in vivo ischemia/reperfusion studies using the general surgical protocol and determination of infarct size (IS) described in “K(ATP) opener-induced delayed cardioprotection: involvement of sarcolemmal and mitochondrial K(ATP) channels, free radicals and MEK½” (Gross, E. et al., J. Mol. Cell. Cardiol. 35, 985-992, 2003), the entirety of which is incorporated herein by reference. Briefly, following anesthesia, a tracheotomy for artificial ventilation was performed, with the left common carotid artery cannulated for blood pressure and heart rate measurements. A thoracotomy was performed at the fifth intercostal space, the pericardium was excised, and a silk ligature was placed distal to the left atrial appendage that spanned to the sternal portion of the left ventricle, which included the left anterior descending coronary artery. Occlusion of the area described [area at risk (AAR)] was created by placing ends of the ligature through a polypropylene tube and fixing the snare to the epicardial surface with a hemostat. After 30 min, the hemostat was released to reperfuse the AAR. Following 2 h of reperfusion, the ligature was again occluded, and the AAR was determined by patent-blue negative staining. The heart was then excised, cross-sectioned into 4 to 5 slices, and separated into normal zone and AAR. Pieces were incubated in 1% 2,3,5-triphenyltetrazolium chloride to determine IS. The heart was then incubated overnight in 10% formaldehyde, and infarcted tissue was dissected from the AAR. IS was expressed as a percentage of the AAR (IS/AAR). Leptin (0.12 μg/kg) was administered intravenously as a bolus at 24 and 12 h before ischemia. Amino acids were administered intravenously as a bolus at 24 and 12 hours before ischemia or dissolved in the drinking water and given 48 hours before ischemia.
as §1

Data set [3] can be described thus: Blood levels of orally administered antibiotics. Format: in vivo, rat. To be noted: antibiotic given in drinking water; detection limit of assay 1 μM. The text has this: Dahl S rats are an established model of increased susceptibility to injury from myocardial ischemia/reperfusion (Baker, J. et al. “Resistance to myocardial ischemia in five rat strains: is there a genetic component of cardioprotection?” Am. J. Physiol. Heart Circ. Physiol. 278, H1395-H1400, 2000, Shi, Y. et al. “Increased resistance to myocardial ischemia in the Brown Norway vs. Dahl S rat: role of nitric oxide synthase and Hsp90.” J. Mol. Cell. Cardiol. 38(4):625-635, 2005). […] A minimum treatment time of 48 h with vancomycin was needed to decrease IS. A return to control values for myocardial IS at 72 h following discontinuation of vancomycin was observed (FIG. 5). To determine whether this decrease in IS was a direct effect of antibiotic present in the coronary vasculature, blood levels of vancomycin were measured. The concentration of vancomycin in blood was below detection limits of the assay used (1 μM). […]
Infarct size was measured in rats treated with the antibiotic mixture using the method described in example 3. […] To determine whether the decrease in infarct size was a direct effect of antibiotics present in the coronary vasculature, blood levels of streptomycin, neomycin, bacitracin and polymyxin B were measured. […]

In the case of `CN[C@H](CC(C)C)C(=O)N[C@H]1C(=O)N[C@@H](CC(N)=O)C(=O)N[C@H]2C(=O)N[C@H]3C(=O)N[C@H](C(=O)N[C@H](C(=O)O)c4cc(O)cc(O)c4-c4cc3ccc4O)[C@H](O)c3ccc(c(Cl)c3)Oc3cc2cc(c3O[C@@H]2O[C@H](CO)[C@@H](O)[C@H](O)[C@H]2O[C@H]2C[C@](C)(N)[C@H](O)[C@H](C)O2)Oc2ccc(cc2Cl)[C@H]1O` [vancomycin, Vancomycin], the “effect on IS when added directly to coronary perfusate” value in data set [1] (1 μM in perfusate, in vitro ischemia/reperfusion) is “no reduction in IS; also recorded: no effect on severity of myocardial infarction; also recorded: did not reduce IS in vitro”. Moreover, in data set [1] (antibiotic added to the drinking water, then excluded from coronary circulation), the “effect on infarct size of isolated hearts” value is on record as “reduced IS”. For the same compound, the “decrease in IS” value in data set [1] (antibiotic in drinking water, then excluded from coronary perfusate, in vitro ischemia/reperfusion) was 29%. Besides, the “time after treatment ceased at which cardioprotection was lost” value in data set [1] (vancomycin in drinking water) was 3 days. In data set [1] (vancomycin in drinking water), the “time of treatment within which cardioprotection was established” value is not above 2 days. The “response of susceptibility to ischemia/reperfusion injury” value in data set [2] (Dahl S rats) is “sensitive”; in data set [2] (Sprague Dawley rats) it was “intermediate response”; in data set [2] (WAG/RijCmcr rats), “resistant”. The concentration in blood in data set [3] is less than 1000 nM.
